Source: patent US4626542A, “4-(5H-dibenzo[a,d]cyclohepten-5-yl)piperidine compounds, pharmaceutical compositions and methods” (Merck & Co., Inc., priority 1984, dated 1986)

Columns and labels:
Rat Aorta = assay: Inhibition of calcium chloride-induced contraction of depolarized vascular smooth muscle segments (rat aorta); format: cell-based, rat (male Sprague-Dawley); details: 1.0 mM calcium chloride-induced contraction; for inhibition at 0.1 µM / inhibition at 0.01 µM: Rattus norvegicus, read-out: Percent Inhibition of Rat Aorta; for inhibition at 0.1 µM / Percent Inhibition of Rat Aorta: at 10^-7 M; for inhibition at 0.01 µM: at 10^-8 M
Description: The property may be observed in a test in which segments of vascular smooth muscle obtained from male Sprague-Dawley rats are suspended in physiological salt solution in a tissue bath instrumented for recording contractions. After the tissue has been equilibrated, washed in calcium-free physiological salt solution and then depolarized, 1.0 mM calcium chloride is re-added to induce contraction. After the contraction has reached a plateau, tissues are washed and a test compound or vehicle is added to determine the effect on a second contraction achieved by the above cyclic protocol. From measuring the initial contraction as well as the second contraction in the presence of the test compound, the extent of inhibition may be calculated. The results of these tests for representative compounds in the compositions of the present invention are seen in the following table. The results are with tests conducted at very low concentrations of 10^-7 M or less.

[1] = Isomerization of the 5H axial to the 5H equatorial isomer followed by 1H NMR; format: physicochemical; details: 3.67 milligrams in 1 milliliter CDCl3, heated at 55° C.±1° C.
Description: Isomerization of the 5H axial isomer of 4-(5H-dibenzo[a,d]cyclohepten-5-yl)-1-methylpiperidine to the 5H equatorial isomer was carried out in an NMR tube. 3.67 milligrams of the axial isomer was dissolved in 1 milliliter of CDCl3 at 24° C. and the sample inserted into the probe of a Nicolet NT-360 NMR spectrometer where it was heated at 55° C.±1° C. NMR spectra (^1 H) were obtained every 864 seconds until isomerization to the equatorial isomer was complete as evidenced by the disappearance of the singlet corresponding to the 5H-axial proton and appearance of the 5H-equatorial proton (about 48,727 seconds).

Row | SMILES | inhibition at 0.1 µM (Rat Aorta) | also measured
1 | CN1CCC(C2c3ccccc3C=Cc3ccc(Br)cc32)CC1 (racemic) [4-(3-Bromo-5H-dibenzo[a,d]cyclohepten-5-yl)-1-methylpiperidine, equatorial isomer] | 80% | –
2 | COc1ccc2c(c1)C(C1CCN(C)CC1)c1ccccc1C=C2 (racemic) [4-(3-Methoxy-5H-dibenzo[a,d]cyclohepten-5-yl)-1-methylpiperidine] | – | inhibition at 0.01 µM (Rat Aorta): 37%
3 | CN1CCC(C2c3ccccc3C=Cc3ccc(Br)cc32)CC1 (racemic) [5H--ax (±)4-(3-Bromo-5H--dibenzo[a,d]cyclohepten-5-yl)-1-met] [4-(3-Bromo-5H-dibenzo[a,d]cyclohepten-5-yl)-1-methylpiperidine, axial isomer] | – | Percent Inhibition of Rat Aorta (Rat Aorta): 79%
4 | CN1CCC(C2c3ccccc3C=Cc3ccc(Br)cc32)CC1 (single isomer, unassigned; (+)) [5H--eq (+)4-(3-Bromo-5H--dibenzo[a,d]cyclohepten-5-yl)-1-met] [(+)-4-(3-bromo-5H-dibenzo[a,d]cyclohepten-5-yl)-1-methylpiperidine] | – | Percent Inhibition of Rat Aorta (Rat Aorta): 22%
5 | CN1CCC(C2c3ccccc3C=Cc3ccc(Br)cc32)CC1 (single isomer, unassigned; (-)) [5H--eq (-)4-(3-Bromo-5H--dibenzo[a,d]cyclohepten-5-yl)-1-met] [(-)-4-(3-bromo-5H-dibenzo[a,d]cyclohepten-5-yl)-1-methylpiperidine] | – | Percent Inhibition of Rat Aorta (Rat Aorta): 92%
6 | C1=Cc2ccccc2C(C2CCN(C3CCCCC3)CC2)c2ccccc21 [4-(5H-Dibenzo[a,d]cyclohepten-5-yl)-1-cyclohexylpiperidine] | 48% | –
7 | CC(C)N1CCC(C2c3ccccc3C=Cc3ccccc32)CC1 [4-(5H-Dibenzo[a,d]cyclohepten-5-yl)-1-isopropylpiperidine] | 44% | –
8 | CN1CCC(C2c3ccccc3C=Cc3ccccc32)CC1 [4-(5H-Dibenzo[a,d]cyclohepten-5-yl)-1-methylpiperidine, axial isomer] | 30% | time until isomerization to the equatorial isomer was complete [1]: about 48,727 seconds
9 | CN1CCC(C2c3ccccc3C=Cc3ccccc32)CC1 [4-(5H-Dibenzo[a,d]cyclohepten-5-yl)-1-methylpiperidine, equatorial isomer] | – | inhibition at 0.01 µM (Rat Aorta): 11%
10 | C[N+]1([O-])CCC(C2c3ccccc3C=Cc3ccccc32)CC1 (stereo not drawn) [4-(5H-Dibenzo[a,d]cyclohepten-5-yl)-1-methylpiperidine-1-oxide monohydrate] | 17% | –
11 | C1=Cc2ccccc2C(C2CCNCC2)c2ccccc21 [4-(5H-Dibenzo[a,d]cyclohepten-5-yl)piperidine] | 39% | –
